According to patent publication EP4714949A1, “NOVEL COMPOUNDS CAPABLE OF INDUCING OSTEOGENIC DIFFERENTIATION” (AJOU UNIVERSITY INDUSTRY-ACADEMIC COOPERATION FOUNDATION, priority 2023, dated 2024):

Experiments:
p53 = p53 activation in hDPSCs (FIG. 2, compound and concentration selection); assay type: cell-based, Human
MDM2 = biological target: T1, MDM2 (Homo sapiens, UniProt Q00987); assay: MDM2 protein degradation by Western blot (SDS-PAGE) in hDPSCs; assay type: cell-based; conditions: FIG. 2, selection among initially selected compounds
T1 construct: evaluate the intracellular MDM2 protein degradation capacity; endogenous in cells; host or cells: human dental pulp stem cells (hDPSCs)
Method: Human dental pulp stem cell lines (hDPSCs) were treated with 14 types of synthesized MDM2-PROTACs (10 µM) for 1 hour and Western blot analysis using SDS-PAGE gel was performed to evaluate the intracellular MDM2 protein degradation capacity.

T1 sequence (Q00987 whole entry): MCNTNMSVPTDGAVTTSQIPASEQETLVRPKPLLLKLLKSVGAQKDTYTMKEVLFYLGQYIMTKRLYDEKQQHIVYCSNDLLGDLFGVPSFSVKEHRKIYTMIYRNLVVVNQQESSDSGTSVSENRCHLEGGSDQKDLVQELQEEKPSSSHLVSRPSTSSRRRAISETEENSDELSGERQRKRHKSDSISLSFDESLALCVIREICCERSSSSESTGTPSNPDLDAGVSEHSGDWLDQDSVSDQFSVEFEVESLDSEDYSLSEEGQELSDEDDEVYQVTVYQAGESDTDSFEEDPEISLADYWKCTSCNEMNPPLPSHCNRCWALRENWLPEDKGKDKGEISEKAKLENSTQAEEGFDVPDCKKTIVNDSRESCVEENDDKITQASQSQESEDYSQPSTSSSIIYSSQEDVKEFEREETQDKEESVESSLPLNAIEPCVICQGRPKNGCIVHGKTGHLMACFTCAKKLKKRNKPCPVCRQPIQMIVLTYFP

| MDM2 degradation (MDM2) | Compound | p53 activation (p53) |
| --- | --- | --- |
| effectively degrade MDM2 | COc1ccc(C2=NC(c3ccc(Cl)cc3)C(c3ccc(Cl)cc3)N2C(=O)N2CCN(CC(=O)NCCCCCCCC#Cc3cccc4c3C(=O)N(C3CCC(=O)NC3=O)C4=O)C(=O)C2)c(OC(C)C)c1 (stereo not drawn) [Compound 16b, 2-(4-(cis-4,5-bis(4-chlorophenyl)-2-(2-isopropoxy-4-methoxyphenyl)-4,5-dihydro-1H-imidazole-1-carbonyl)-2-oxopiperazin-1-yl)-N-(9-(2-(2,6-dioxopiperidin-3-yl)-1,3-dioxoisoindolin-4-yl)non-8-yn-1-yl) acetamide] | activate p53 |
| effectively degrade MDM2 | COc1ccc(C2=NC(c3ccc(Cl)cc3)C(c3ccc(Cl)cc3)N2C(=O)N2CCN(CC(=O)NCCCCCCCCOc3cccc4c3C(=O)N(C3CCC(=O)NC3=O)C4=O)C(=O)C2)c(OC(C)C)c1 (stereo not drawn) [Compound 6b, 2-(4-(cis-4,5-bis(4-chlorophenyl)-2-(2-isopropoxy-4-methoxyphenyl)-4,5-dihydro-1H-imidazole-1-carbonyl)-2-oxopiperazin-1-yl)-N-(8-((2-(2,6-dioxoopiperidin-3-yl)-1,3-dioxoisoindolin-4-yl)oxy)octyl)acetamide] | activate p53 |
